The values below come from patent US20220062247A1, “USE OF A PAR-1 ANTAGONIST FOR THE TREATMENT OF A CHRONIC INFLAMMATORY INTESTINAL DISEASE” (CVASTHERA, priority 2018, published 2022).

For this test, the system named is inflammatory bowel disease, Dextran Sulphate sodium (DSS). The test is described as follows: Dextran Sulphate sodium (DSS) model of inflammatory bowel disease in mice (body weight, DAI, macroscopic damage score, MPO). Also on record: Disease activity index, D1 / Disease activity index, D2 / Disease activity index, D3 / Disease activity index, D4 / Disease activity index, D5 / Disease activity index, D6 / Disease activity index, D7 / macroscopic damage score: scale not given here. The format is in vivo, mice (C57B16). The text has this:
The purpose of this study is to assess the effectiveness of a PAR-1 antagonist according to the invention, 3-2-(chloro-phenyl)-1-[4-(4-fluoro-benzyl)-piperazine-1-yl]propenone (CSI) in a model of an inflammatory bowel disease, Dextran Sulphate sodium (DSS) in mice. This DSS model is described in the publication of Choi et al., 2010, in J. Biomed. Biotechnol., 2010:943516; doi: 10.1155/2010/943516.
This model features a cytokine profile Th1 in its acute phase, periods of remission and relapses, it is consequently very similar to ulcerous colitis. The DSS distributed in the drinking water can cause an inflammation of the digestive tract and produce colorectal tumours in the rodent. The DSS is widely used as an animal model of human inflammatory diseases of the digestive tract.
The present study is conducted in 7-week-old mice (C57B16). The 5-aminosalicylic acid serves as a positive comparative example.
The first day of the study starts with the daily administration of a beverage containing DSS at 5% p/p in water to the mice, until the day of sacrifice. The development of the disease is estimated on a daily basis, with accurate weighting of the mice, the assessment of the consistence of the excrements as well as the presence of blood in the faeces with the Hemoccult® paper test. The DAI score is calculated as indicated in Example 1.
Each day, groups of mice receive per os CSI at different concentrations, or 5-aminosalicylic acid (5-ASA), or the vehicle alone, that is to say carboxymethyl cellulose (CMC) at 1%.
The mice are sacrificed 7 days after the beginning of the treatment. The colon is excised and the macroscopic damages are assessed. The colon is then cut into 4 pieces, the distal portion is placed in an Eppendorf tube and stored at −80° C. until the measurement of the activity of myeloperoxidase and the quantification of proteins. The proximal portion is kept in formaline at 10% for future histological analyses. The two other central portions are placed in Eppendorf tubes and stored at −80° C. for future analyses.
On day 7, after having sacrificed the animals, the colon is removed. The macroscopic damage score, assessed as described in Example 1, and the myeloperoxidase (MPO) activity are determined.

Setting [1] is: DSS 5%, Group 5, 50 mg/kg/24 h per os, Moy.
Setting [2] is: DSS mice, 50 mg/kg daily oral (Group 5), all observed points.

Take `Nc1ccc(O)c(C(=O)O)c1` [5-ASA, 5-aminosalicylic acid, reference compound]: under setting [1], the “Disease activity index, D1” value was 1.64; the “Disease activity index, D2” value is listed as 1.25; the “Disease activity index, D3” value was 1.92; the “Disease activity index, D4” value stood at 3.50. Under setting [1], the “Disease activity index, D5” value worked out at 4.00; the “Disease activity index, D6” value amounted to 4.00; the “Disease activity index, D7” value is 3.20; the “Variation of the body weight of the mice in comparison with day D0, D1-D0” value is 0.64 g. Under setting [1], the “Variation of the body weight of the mice in comparison with day D0, D2-D0” value came out at 0.64 g; the “Variation of the body weight of the mice in comparison with day D0, D3-D0” value is 1.05 g; the “Variation of the body weight of the mice in comparison with day D0, D4-D0” value was -0.03 g; the “Variation of the body weight of the mice in comparison with day D0, D5-D0” value is -1.67 g. Also, under setting [1], the “Variation of the body weight of the mice in comparison with day D0, D6-D0” value is -3.68 g and the “Variation of the body weight of the mice in comparison with day D0, D7-D0” value is -4.76 g. Besides, the macroscopic damage score (DSS 5%, Group 5, 50 mg/kg/24 h per os, day 7, Moy) worked out at 6.5. For the same compound, where the note is “DSS 5%, Group 5, 50 mg/kg/24 h per os, day 7, colon, Moy”, the MPO activity amounted to 9.34 mU/mg proteins. Besides, where the note is “DSS mice, 50 mg/kg (Group 5), vs vehicle group (Group 4)”, the macroscopic damage score entry is listed as “significantly reduces”. In addition, under setting [2], the “increase of the disease activity index” value is recorded as “prevents neither” and the weight loss result is “prevents neither”.
